The source of these data is patent US20070208040A1, “A2A ADENOSINE RECEPTOR ANTAGONISTS” (priority 2006, published 2007).

This assay deals with A2A adenosine receptor (UniProt P29274). Put plainly: A2A radioligand binding assay (displacement of 3H-MSX-2). The settings on record: displacement of 2 nM 3H-MSX-2 from 15 ug A2A membrane, 23° C., 2 hours. More on the design: species or system human. The text has this:
A tritiated adenosine A2A antagonist, 3-(3-hydroxypropyl)-7-methyl-8-(m-methoxystyryl)-1-propargylxanthine, (3H-MSX-2, specific activity: 80 Ci/mmol), was purchased from American Radiolabeled Chemicals, Inc (St. Louis, Mo.). A tritiated adenosine A1 antagonist, 1,3-Dipropyl-8-cyclopentylxanthine ([^3H]DPCPX, specific activity: 120 Ci/mmol) was purchased from Perkin Elmer (Boston, Mass.). A tritiated adenosine A2a antagonist, 4-(2-[7-amino-2-(2-furyl)[1,2,4]triazolo[2,3-a][1,3,5]triazin-5-ylamino]ethyl)phenol ([^3H]ZM241385 specific activity: 27.4 Ci/mmol) was purchased from American Radiolabeled Chemicals, Inc (St. Louis, Mo.). Adenosine Deaminase (ADA) was purchased from Roche Molecular Biochemicals (Nutley, N.J.). GTP was purchased from Sigma. Concentrated stock solution (10 mM) of compounds was dissolved in dimethylsulfoxide (DMSO), stored at −20° C., and diluted in Tris-EDTA buffer (50 mM Tris and 1 mM EDTA, 10 mM MgCl2, pH 7.4) for use in experiments. The final content of dimethylsulfoxide in Tris-EDTA buffer during experiments was not more than 1%. Male Sprague Dawley rats, weighted 250-400 g, 8-10 weeks old, were purchased from Charles River Labs (Wilmington, Mass.).
HEK293 (Human Embryonic Kidney 293) cells stably expressing human A2A adenosine receptor or human A2B adenosine receptor were maintained in DMEM supplemented with 10% fetal bovine serum, 2 mM L-glutamine, 100 IU/ml penicillin, 50 μg/ml streptomycin and 2 μg/ml puromycin. CHO (Chinese Hamster Ovary) cells stably expressing human A1 adenosine receptor or human A3 adenosine receptor were maintained in F12K medium supplemented with 10% fetal bovine serum, 2 mM L-glutamine, 100 IU penicillin, 50 μg streptomycin and 8 μg/ml puromycin. PC12 (rat pheochromocytoma) cells were cultured in F12K medium supplemented with 10% horse serum and 2.5% fetal bovine serum, 2 mM L-glutamine, 100 IU/ml penicillin, and 50 μg/ml streptomycin. All cells were maintained at 37° C. in a humidified 5% CO2/95% air incubator and recultivated 2 times per week.
Cultured cells in 150 mm^2 dishes were washed once with PBS, detached by scrapping, collected with buffer A (10 mM HEPES, 10 mM EDTA, pH 7.4) containing protease inhibitor cocktail. Cells were then homogenized by a handheld homogenizer at a speed of 4.5 for 1 min. The homogenate was centrifuged by a Beckman ultracentrifuge at a speed of 29,000 × g for 15 min. The pellets were resuspended in buffer HE (10 mM HEPES, 1 mM EDTA, pH 7.4, with protease inhibitor cocktail), centrifuged again at 29,000 × g for 15 min. The crude membrane was resuspended using buffer HE, and protein concentration was measured by the method of Lowery with BSA as standard. Similar procedures were used for membrane preparation for fresh rat tissues. All experimental procedures were done at 4° C. Membranes were aliquot and kept at −80° C.
The binding assays utilized 15 ug of A2A membrane (human recombinant A2A membrane, rat striatal membrane, or PC 12 cell membrane) that had been treated with adenosine deaminase and 50 mM Tris-EDTA buffer (pH=7.4) followed by mixing 2 μL of serially diluted DMSO stock solution of the compounds of this invention at concentrations ranging from 10 μM to 0.1 nM or the control received 2 μL of DMSO alone, then the tritiated antagonist 3-(3-hydroxypropyl)-7-methyl-8-(m-methoxystyryl)-1-propargylxanthine (^3H-MSX-2) in Tris-EDTA buffer (50 mM Tris, 1 mM EDTA, 10 mM MgCl2, pH of 7.4) was added to achieve a final concentration of 2 nM. After incubation at 23° C. for 2 hours, the solutions were filtered using a membrane harvester with multiple washing of the membranes (3×). The filter plates were counted in scintillation cocktail affording the amount of displacement ^3H-MSX-2 by the competitive binding compositions of this invention. Radioligand binding data was analyzed using GraphPad Prism version 4.0 (San Diego, Calif.). […]
For `CCCn1c(=O)[nH]c2sc(C3=N[C@@H](C)CO3)c(C)c2c1=O` [XLV, 6-((4S)-4-methyl(1,3-oxazolin-2-yl))-5-methyl-3-propyl-1,3-dihydrothiopheno[2,3-d]pyrimidine-2,4-dione], the affinity, expressed as Ki, was 0.095 µM.
For `CCn1c(=O)c2c(C)c(-c3ccoc3)sc2n(C)c1=O` [XLVI, 3-ethyl-6-(3-furyl)-1,5-dimethyl-1,3-dihydrothiopheno[2,3-d]pyrimidine-2,4-dione], the affinity, expressed as Ki, was 0.546 µM.
With `CCn1c(=O)c2c(C)c(-c3cc(C)cs3)sc2n(C)c1=O` [XLVII, 3-ethyl-1,5-dimethyl-6-(4-methyl(2-thienyl))-1,3-dihydrothiopheno[2,3-d]pyrimidine-2,4-dione], the Ki (in general, a dissociation constant, usually derived from enzyme kinetics or from competition with a known ligand) is 0.524 µM. This Ki and that of the compound before are within 1.5-fold of each other.
The compound `CCn1c(=O)c2c(C)c(-c3nccs3)sc2n(C)c1=O` [XLVIII, 3-ethyl-1,5-dimethyl-6-(1,3-thiazol-2-yl)-1,3-dihydrothiopheno[2,3-d]pyrimidine-2,4-dione] yielded a Ki of 0.199 µM.
With `CCn1c(=O)[nH]c2sc(C(=O)NC)c(C)c2c1=O` [XV, (3-ethyl-5-methyl-2,4-dioxo(1,3-dihydrothiopheno[2,3-d]pyrimidin-6-yl))-n-methylcarboxamide], the Ki turned out to be 0.676 µM. This Ki is about 3.4-fold higher than that of the compound before.
For the compound `CCn1c(=O)[nH]c2sc(C)c(C)c2c1=O` [XVI, 3-ethyl-5,6-dimethyl-1,3-dihydrothiopheno[2,3-d]pyrimidine-2,4-dione], the Ki was 0.699 µM.
For the compound `CCOC(=O)c1sc2[nH]c(=O)n(C)c(=O)c2c1C` [XVII, ethyl 3,5-dimethyl-2,4-dioxo-1,3-dihydrothiopheno[2,3-d]pyrimidine-6-carboxylate], affinity was put at a Ki of 0.715 µM.
In turn, `CCn1c(=O)[nH]c2sc(-c3cnn(Cc4ccccc4)c3)c(C)c2c1=O` [XVIII, 3-ethyl-5-methyl-6-[1-benzylpyrazol-4-yl]-1,3-dihydrothiopheno[2,3-d]pyrimidine-2,4-dione] had a Ki of 0.752 µM.
Under `CCn1c(=O)[nH]c2sc(-c3nc(Cc4ccccc4)no3)c(C)c2c1=O` [XX, 3-ethyl-5-methyl-6-[3-benzyl(1,2,4-oxadiazol-5-yl)]-1,3-dihydrothiopheno[2,3-d]pyrimidine-2,4-dione] stands 0.805 µM; under `CCn1c(=O)[nH]c2scc(-c3ccc(C)o3)c2c1=O` [XXI, 3-ethyl-5-(5-methyl(2-furyl))-1,3-dihydrothiopheno[2,3-d]pyrimidine-2,4-dione], 0.23 µM.
`CCn1c(=O)c2c(-c3ccc(C)o3)csc2n(C)c1=O` [XXII, 3-ethyl-1-methyl-5-(5-methyl(2-furyl))-1,3-dihydrothiopheno[2,3-d]pyrimidine-2,4-dione] yielded a Ki of 0.896 µM.
To `Cc1c(-c2cocn2)sc2[nH]c(=O)n(CC(C)C)c(=O)c12` [XXIII, 5-methyl-3-(2-methylpropyl)-6-(1,3-oxazol-4-yl)-1,3-dihydrothiopheno[2,3-d]pyrimidine-2,4-dione] belongs 0.096 µM; to `Cc1c(-c2cocn2)sc2c1c(=O)n(CC(C)C)c(=O)n2C` [XXIV, 1,5-dimethyl-3-(2-propylmethyl)-6-(1,3-oxazol-4-yl)-1,3-dihydrothiopheno[1,3-d]pyrimidine-2,4-dione], 0.165 µM.
For the compound `Cc1c(-c2ncco2)sc2[nH]c(=O)n(CC(C)C)c(=O)c12` [XXIX, 5-methyl-3-(2-methylpropyl)-6-(1,3-oxazol-2-yl)-1,3-dihydrothiopheno[2,3-d]pyrimidine-2,4-dione], the Ki turned out to be 0.075 µM.
Under `C#CCn1c(=O)[nH]c2sc(C(=O)OCC)c(C)c2c1=O` [XXV, ethyl 5-methyl-2,4-dioxo-3-prop-2-ynyl-1,3-dihydrothiopheno[2,3-d]pyrimidine-6-carboxylate] stands 0.3 µM.
In the case of `C#CCn1c(=O)c2c(C)c(C(=O)OCC)sc2n(C)c1=O` [XXVI, ethyl 1,5-dimethyl-2,4-dioxo-3-prop-2-ynyl-1,3-dihydrothiopheno[2,3-d]pyrimidine-6-carboxylate], the Ki is 0.049 µM.
For `CCn1c(=O)[nH]c2sc(-c3ccc[nH]3)c(C)c2c1=O` [XXVII, 3-ethyl-5-methyl-6-pyrrol-2-yl-1,3-dihydrothiopheno[2,3-d]pyrimidine-2,4-dione], the Ki was 0.18 µM. Compared with the last compound, the Ki is about 3.7-fold higher.
As for `Cc1c(C2=NCCO2)sc2[nH]c(=O)n(CC(C)C)c(=O)c12` [XXVIII, 5-methyl-3-(2-methylpropyl)-6-(1,3-oxazolin-2-yl)-1,3-dihydrothiopheno[2,3-d]pyrimidine-2,4-dione], affinity was put at a Ki of 0.137 µM.
In turn, `Cc1c(-c2ccoc2)sc2[nH]c(=O)n(CC(C)C)c(=O)c12` [XXX, 6-(3-furyl)-5-methyl-3-(2-methylpropyl)-1,3-dihydrothiopheno[2,3-d]pyrimidine-2,4-dione] yielded a Ki of 0.158 µM.
In the case of `CCn1c(=O)[nH]c2sc(-c3cc(C)cs3)c(C)c2c1=O` [XXXI, 3-ethyl-5-methyl-6-(4-methyl(2-thienyl))-1,3-dihydrothiopheno[2,3-d]pyrimidine-2,4-dione], the affinity corresponds to a Ki of 0.15 µM.
The compound `CCn1c(=O)[nH]c2sc(-c3sccc3C)c(C)c2c1=O` [XXXII, 3-ethyl-5-methyl-6-(3-methyl(2-thienyl))-1,3-dihydrothiopheno[2,3-d]pyrimidine-2,4-dione] had a Ki of 0.11 µM.
With `Cc1c(-c2cccs2)sc2[nH]c(=O)n(C)c(=O)c12` [XXXIII, 3,5-dimethyl-6-(2-thienyl)-1,3-dihydrothiopheno[2,3-d]pyrimidine-2,4-dione], affinity was put at a Ki of 0.15 µM.
To `Cc1c(-c2ccco2)sc2[nH]c(=O)n(C)c(=O)c12` [XXXIV, 6-(2-furyl)-3,5-dimethyl-1,3-dihydrothiopheno[2,3-d]pyrimidine-2,4-dione] belongs 0.11 µM; to `CCn1c(=O)c2c(C)c(-c3ccco3)sc2n(C)c1=O` [XXXIX, 3-ethyl-6-(2-furyl)-1,5-dimethyl-1,3-dihydrothiopheno[2,3-d]pyrimidine-2,4-dione], 0.25 µM; to `Cc1c(-c2cccs2)sc2[nH]c(=O)n(CC3CC3)c(=O)c12` [XXXV, 3-(cyclopropylmethyl)-5-methyl-6-(2-thienyl)-1,3-dihydrothiopheno[2,3-d]pyrimidine-2,4-dione], 0.195 µM.
Compound `Cc1c(-c2ccco2)sc2[nH]c(=O)n(CC3CC3)c(=O)c12` [XXXVI, 3-(cyclopropylmethyl)-5-methyl-6-(2-furyl)-1,3-dihydrothiopheno[2,3-d]pyrimidine-2,4-dione] had a Ki of 0.17 µM.
To `CCn1c(=O)[nH]c2sc(-c3nccs3)c(C)c2c1=O` [XXXVII, 3-ethyl-5-methyl-6-(1,3-thiazol-2-yl)-1,3-dihydrothiopheno[2,3-d]pyrimidine-2,4-dione] belongs 0.167 µM.
To `CCn1c(=O)[nH]c2sc(-c3ccccn3)c(C)c2c1=O` [XXXVIII, 3-ethyl-5-methyl-6-(2-pyridyl)-1,3-dihydrothiopheno[2,3-d]pyrimidine-2,4-dione] belongs 0.12 µM.
